Data published in patent US20220125844A1 (priority 2020, published 2022).

Key:
[1] = tested on: primary human natural killer (NK) cells; settings: cited from earlier work
[2] = tested on: CAR-NK cells (effector) with MV-4-11 target cells; assay: CAR-NK cell apoptosis assay, annexin V staining and flow cytometry; assay type: cell-based, human; settings: clinically-relevant concentration, morphine 25 ng/mL, two-hour incubation of effector cells; data only in FIG. 1
[3] = tested on: primary human NK cells (effector) with MV-4-11 target cells; assay: Primary human NK cell apoptosis assay, annexin V staining and flow cytometry; assay type: cell-based; settings: clinically-relevant concentration, morphine 25 ng/mL, two-hour incubation of effector cells; data only in FIG. 1

## C[C@@H](NC(=O)[C@@H](N)Cc1ccc(O)cc1)C(=O)NCC(=O)N(C)[C@@H](Cc1ccccc1)C(=O)NCCO [DAMGO, [D-Ala2, N-Me-Phe4, Gly5-ol]-enkephalin]
[1]
  primary human NK cell cytotoxicity after preincubation with opioid: reduced

## CN1CC[C@]23c4c5ccc(O)c4O[C@H]2[C@@H](O)C=C[C@H]3[C@H]1C5 [morphine]
[2]
  effect on CAR-NK cell function (ability to induce apoptosis in MV-4-11 cells): functionally inhibited
[1]
  primary human NK cell cytotoxicity after preincubation with opioid: reduced
[3]
  effect on primary human NK cell function (ability to induce apoptosis in MV-4-11 cells): functionally inhibited

## CCC(=O)C(CC(C)N(C)C)(c1ccccc1)c1ccccc1 (centres unmarked) [methadone]
[1]
  primary human NK cell cytotoxicity after preincubation with opioid: reduced
